Assay results as given in ChEMBL document CHEMBL2010750, “Penicillin inhibitors of purple acid phosphatase” (Bioorg Med Chem Lett, 2012).
Calls of active or inactive are those of the source. No cut-off for these calls is given here.

Assays:
Sus scrofa [1] = species on record: Sus scrofa; assay: Competitive inhibition of pig PAP using para-nitrophenol as substrate at pH 4.9 preincubated for 10 mins by UV-visible spectrophotometry
Sus scrofa [2] = species on record: Sus scrofa; assay: Uncompetitive inhibition of pig PAP using para-nitrophenol as substrate at pH 4.9 preincubated for 10 mins by UV-visible spectrophotometry

Row | SMILES | Kic (Sus scrofa [1]) | Kiuc (Sus scrofa [2])
1 | CC1(C)S[C@@H]2[C@H](NC(=O)c3ccc(C(=O)c4ccccc4)cc3)C(=O)N2[C@H]1C(=O)O | 26 µM | inactive
2 | CC(=O)Oc1ccc(C(=O)N[C@@H]2C(=O)N3[C@@H]2SC(C)(C)[C@@H]3C(=O)O)cc1 | 53 µM | inactive
3 | CC1(C)S[C@@H]2[C@H](NC(=O)c3ccc(C(=O)c4ccccc4Cl)cc3)C(=O)N2[C@H]1C(=O)O | 32 µM | inactive
4 | CC1(C)S[C@@H]2[C@H](NC(=O)c3ccc(C(=O)c4cccc([N+](=O)[O-])c4)cc3)C(=O)N2[C@H]1C(=O)O | 23 µM | inactive

Continued, values first:

Row | Kic (Sus scrofa [1]) | Kiuc (Sus scrofa [2]) | SMILES
5 | 60 µM | inactive | Cc1ccc(C(=O)c2cccc(C(=O)N[C@@H]3C(=O)N4[C@@H]3SC(C)(C)[C@@H]4C(=O)O)c2)cc1
6 | 17 µM | inactive | CC1(C)S[C@@H]2[C@H](NC(=O)c3ccc(C(=O)c4ccc([N+](=O)[O-])cc4)cc3)C(=O)N2[C@H]1C(=O)O
7 | inactive | inactive | CC1(C)S[C@@H]2[C@H](NC(=O)Cc3ccccc3)C(=O)N2[C@H]1C(=O)O
8 | 241 µM | 491 µM | CC1(C)S[C@@H]2[C@H](NC(=O)c3cccc(C(=O)N4CCCCC4)c3)C(=O)N2[C@H]1C(=O)O
9 | 12 µM | inactive | CC1(C)S[C@@H]2[C@H](NC(=O)c3ccc(C(=O)c4ccc(Cl)cc4)cc3)C(=O)N2[C@H]1C(=O)O
